Data from ChEMBL document CHEMBL1157393, “Selective inhibition of aromatase by a dihydroisocoumarin from Xyris pterygoblephara” (J Nat Prod, 2008).
Calls of active or inactive are those of the source. No cut-off for these calls is given here.

Assays:
[1] = target: T1, Aromatase (Homo sapiens, UniProt P11511); test: Inhibition of aromatase
T1 sequence (P11511 whole entry): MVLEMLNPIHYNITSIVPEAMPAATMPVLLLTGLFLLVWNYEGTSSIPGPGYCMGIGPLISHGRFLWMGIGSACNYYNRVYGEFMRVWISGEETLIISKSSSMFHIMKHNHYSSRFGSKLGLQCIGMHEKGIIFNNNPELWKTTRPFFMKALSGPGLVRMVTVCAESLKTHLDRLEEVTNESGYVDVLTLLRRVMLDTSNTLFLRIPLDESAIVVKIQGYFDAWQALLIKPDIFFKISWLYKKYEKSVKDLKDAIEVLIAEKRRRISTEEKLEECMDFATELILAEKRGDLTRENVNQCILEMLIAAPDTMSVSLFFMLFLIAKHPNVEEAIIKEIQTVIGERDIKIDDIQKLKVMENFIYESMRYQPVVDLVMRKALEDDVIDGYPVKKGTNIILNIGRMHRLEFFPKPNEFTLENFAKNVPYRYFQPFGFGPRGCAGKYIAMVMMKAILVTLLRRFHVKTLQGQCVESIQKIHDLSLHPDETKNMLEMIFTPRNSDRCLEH

[2] = test system: Lu1; test: Antiproliferative activity against human LU1 cells assessed as cell growth upto 65 uM after 4 days by sulforhodamine B assay; assay type: functional, cell-based
[3] = test system: HepG2; test: Antiproliferative activity against human HepG2 cells assessed as cell growth upto 65 uM after 4 days by sulforhodamine B assay; assay type: functional, cell-based
[4] = test system: MCF7; test: Antiproliferative activity against human MCF7 cells assessed as cell growth after 4 days by sulforhodamine B assay; assay type: functional, cell-based; settings: MCF7, 96 h
[5] = test system: LNCaP; test: Antiproliferative activity against human LNCaP 1740 cells assessed as cell growth after 4 days by sulforhodamine B assay; assay type: functional, cell-based; settings: 96 h
[6] = target: T2, Cytochrome P450 1A1 (Homo sapiens, UniProt P04798); test: Inhibition of CYP1A1; assay type: ADME
T2 sequence (P04798 whole entry): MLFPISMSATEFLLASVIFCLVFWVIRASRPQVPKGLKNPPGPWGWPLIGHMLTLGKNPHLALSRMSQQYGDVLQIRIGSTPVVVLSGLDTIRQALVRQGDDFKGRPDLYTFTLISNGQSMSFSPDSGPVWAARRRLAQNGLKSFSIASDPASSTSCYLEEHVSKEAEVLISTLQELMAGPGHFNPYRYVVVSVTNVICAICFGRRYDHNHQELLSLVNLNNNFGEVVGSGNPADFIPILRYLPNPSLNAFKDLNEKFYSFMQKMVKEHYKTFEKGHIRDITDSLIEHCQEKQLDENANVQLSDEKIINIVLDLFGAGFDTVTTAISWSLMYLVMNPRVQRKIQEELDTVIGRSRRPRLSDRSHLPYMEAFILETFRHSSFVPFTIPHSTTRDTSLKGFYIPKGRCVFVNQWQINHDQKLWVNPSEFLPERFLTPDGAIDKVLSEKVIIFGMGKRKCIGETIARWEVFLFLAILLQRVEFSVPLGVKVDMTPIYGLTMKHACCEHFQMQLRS

[7] = target: Cytochrome P450 3A4 (Homo sapiens, UniProt P08684); test: Inhibition of CYP3A4; assay type: ADME
Chain of Cytochrome P450 3A4 (P08684 whole entry): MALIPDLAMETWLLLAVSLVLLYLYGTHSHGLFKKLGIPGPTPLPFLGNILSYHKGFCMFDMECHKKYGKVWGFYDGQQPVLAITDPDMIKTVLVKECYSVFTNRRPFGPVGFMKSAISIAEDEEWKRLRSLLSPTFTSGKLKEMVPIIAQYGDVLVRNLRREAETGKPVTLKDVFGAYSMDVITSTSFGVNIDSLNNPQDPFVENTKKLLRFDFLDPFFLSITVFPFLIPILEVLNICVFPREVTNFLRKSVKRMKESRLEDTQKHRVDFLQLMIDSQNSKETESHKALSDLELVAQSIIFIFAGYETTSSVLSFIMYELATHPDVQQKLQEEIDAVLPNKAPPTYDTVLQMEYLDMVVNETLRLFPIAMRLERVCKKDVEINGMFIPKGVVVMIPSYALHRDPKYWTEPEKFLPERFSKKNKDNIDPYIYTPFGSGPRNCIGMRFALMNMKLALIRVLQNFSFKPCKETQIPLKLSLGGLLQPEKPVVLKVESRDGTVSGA

[8] = target: T3, Cytochrome P450 2C8 (Homo sapiens, UniProt P10632); test: Inhibition of CYP2C8; assay type: ADME
T3 sequence (P10632 whole entry): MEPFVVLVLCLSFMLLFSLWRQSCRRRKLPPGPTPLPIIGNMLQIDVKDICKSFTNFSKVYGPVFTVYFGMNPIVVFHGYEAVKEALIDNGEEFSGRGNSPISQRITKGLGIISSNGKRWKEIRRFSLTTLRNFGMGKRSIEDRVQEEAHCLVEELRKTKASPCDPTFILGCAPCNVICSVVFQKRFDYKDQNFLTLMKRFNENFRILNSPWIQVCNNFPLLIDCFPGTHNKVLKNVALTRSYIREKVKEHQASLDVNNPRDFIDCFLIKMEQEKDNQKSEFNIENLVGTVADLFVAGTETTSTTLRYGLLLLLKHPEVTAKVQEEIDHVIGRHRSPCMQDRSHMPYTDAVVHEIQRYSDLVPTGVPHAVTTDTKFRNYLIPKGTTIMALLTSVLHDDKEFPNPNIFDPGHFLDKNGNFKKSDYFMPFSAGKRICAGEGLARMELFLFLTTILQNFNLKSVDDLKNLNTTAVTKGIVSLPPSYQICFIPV

## C[C@@H]1O[C@@H](O[C@H]2[C@H](Oc3cc(O)c4c(c3)O[C@H](c3ccc(O)cc3)CC4=O)O[C@H](CO)[C@@H](O)[C@@H]2O)[C@H](O)[C@H](O)[C@H]1O [NARINGIN]
[1]
  IC50: 5 µM

## CCCCC[C@H]1OC(=O)c2ccc(OC)cc2[C@H]1OC(C)=O
[2]
  Activity: inactive
[3]
  Activity: inactive
[4]
  IC50: 66.9 µM
[5]
  IC50: 57.5 µM
[6]
  IC50: 38 µM
[7]
  IC50: > 65 µM
[8]
  IC50: > 65 µM
